Source: patent US20230189808A1, “SELECTIVE HERBICIDES BASED ON SUBSTITUTED ISOXAZOLIN CARBOXAMIDES AND FURILAZOLE” (Bayer Aktiengesellschaft, priority 2020, published 2023)

Assays:
ZEAMA Sileno [1] = experiment: Tank-mix post-emergence crop damage and safener test in greenhouse; format: in vivo, maize; settings: final assessment
Description: Tank-Mix; Post-Emergence • A) Method Description
Seeds of crops (spring wheat, TRZAS; spring barley, HORVS; maize, ZEAMA) were placed in sandy loam soil in peat pots, covered with soil and cultivated in a greenhouse under good growth conditions. Two to three weeks after sowing, the test plants were treated at the 1 to 3-leaf stage. The herbicide/safener active compound combinations according to the invention, formulated as wettable powders or emulsion concentrates, and, in parallel tests, the correspondingly formulated individual active compounds were sprayed onto the green parts of the plants in various dosages using an amount of water of 300 1/ha (converted).
The pots were returned under good growing conditions in a glasshouse and a visual assessment of herbicidal effects was made at intervals from 1 to 3 weeks after herbicide application (DAT=days after treatment). Assessment was on a percentage basis in comparison with untreated control plants (0%=no injury, 100%=complete kill).
(§1) Plant Species, Variety: ZEAMA Sileno, Safener (SAF): Furilazole

ZEAMA Sileno [2] = experiment: Safener seed treatment with pre-emergence herbicide application, crop damage test in greenhouse; format: in vivo, maize; design: key to Reduction [Difference]: difference in % crop damage (visual score vs untreated control); settings: for Reduction [%] / Reduction [Difference]: furilazole 0.25 g a.i./kg seed; for HER effect + SAF [%] / HER effect [%]: pre-emergence; for HER effect + SAF [%]: furilazole seed treatment 0.25 g a.i./kg seed; for HER effect [%]: % crop damage
Description: Seed Treatment; Pre-Emergence • A) Method Description
For the safener seed treatment, sufficient seeds of the respective crops (spring wheat, TRZAS; spring barley, HORVS; maize, ZEAMA) were weighed into screw top glass bottles approximately twice the volume of the seeds.
The specified safeners, formulated as wettable powder (WP) were weighed out so that the specified rates (g a·i·/kg seed) would be obtained, dissolved in water (1 ml water per 10 g of seeds), and added to the seeds to produce a slurry.
The bottles were capped and then placed in an overhead shaker (set at medium speed for ca. 60 minutes) so that the seeds were evenly coated with the slurry. The bottles were uncapped and the seeds were either placed on paper and dried for an interval of 3-4 hours prior to sowing, or directly sown. Seeds were placed in sandy loam soil in pots of a diameter of 7-8 cm, and covered with soil.
Pre-emergence application of the specified herbicides was done subsequently, on two sets of plants:
a) seed treatment with safener, as described above
The herbicides were formulated as WP and was sprayed onto the soil surface as an aqueous suspension at an equivalent water application rate of 300 1/ha.
After application, the test plants were kept in the greenhouse under good growth conditions. At intervals up to 4 weeks after application (=28 days after treatment; DAT), % crop damage observed on the treated plants was scored visually in comparison to control plants that had not received any safener or herbicide treatment.
Values in the table below are mean values of at least 2 replicates.
as §1

[3] = herbicide alone 40 g a.i./ha, 26 DAT
[4] = herbicide alone 80 g a.i./ha, 14 DAT
[5] = herbicide alone 80 g a.i./ha, 26 DAT
[6] = herbicide alone 40 g a.i./ha, 14 DAT

| Compound | Reduction [%] (ZEAMA Sileno [1]; Reduction [Difference]*100/herbicide damage without safener, herbicide 32 g a.i./ha, furilazole 100 g a.i./ha) | Reduction [Difference] (ZEAMA Sileno [1]; herbicide damage without safener minus with safener, herbicide 32 g a.i./ha, furilazole 100 g a.i./ha) | HER effect + SAF [%] (ZEAMA Sileno [1]; post-emergence tank-mix, herbicide 32 g a.i./ha + furilazole 100 g a.i./ha) | HER effect [%] (ZEAMA Sileno [1]; post-emergence, herbicide alone 32 g a.i./ha, visual crop injury (0%=no injury, 100%=complete kill)) | Reduction [%] (ZEAMA Sileno [2]; herbicide 40 g a.i./ha, 26 DAT) | Reduction [Difference] (ZEAMA Sileno [2]; herbicide 40 g a.i./ha, 26 DAT) | Reduction [%] (ZEAMA Sileno [2]; herbicide 80 g a.i./ha, 14 DAT) | Reduction [Difference] (ZEAMA Sileno [2]; herbicide 80 g a.i./ha, 14 DAT) | Reduction [%] (ZEAMA Sileno [2]; herbicide 80 g a.i./ha, 26 DAT) | Reduction [Difference] (ZEAMA Sileno [2]; herbicide 80 g a.i./ha, 26 DAT) | HER effect + SAF [%] (ZEAMA Sileno [2]; herbicide 40 g a.i./ha, 26 DAT) | HER effect + SAF [%] (ZEAMA Sileno [2]; herbicide 80 g a.i./ha, 14 DAT) | HER effect + SAF [%] (ZEAMA Sileno [2]; herbicide 80 g a.i./ha, 26 DAT) | HER effect [%] (ZEAMA Sileno [2]; [3]) | HER effect [%] (ZEAMA Sileno [2]; [4]) | HER effect [%] (ZEAMA Sileno [2]; [5]) | Reduction [%] (ZEAMA Sileno [2]; herbicide 40 g a.i./ha, 14 DAT) | Reduction [Difference] (ZEAMA Sileno [2]; herbicide 40 g a.i./ha, 14 DAT) | HER effect + SAF [%] (ZEAMA Sileno [2]; herbicide 40 g a.i./ha, 14 DAT) | HER effect [%] (ZEAMA Sileno [2]; [6]) |
| --- | --- | --- | --- | --- | --- | --- | --- | --- | --- | --- | --- | --- | --- | --- | --- | --- | --- | --- | --- | --- |
| C=CC1(C(=O)NC2C=CC(C(=O)OC)C2)CC(c2cc(F)cc(F)c2)=NO1 (centres unmarked) [Example 1.26] | 61% | 57 | 37% | 94% | 80% | 40 | 79% | 55 | 86% | 60 | 10% | 15% | 10% | 50% | 70% | 70% |  |  |  |  |
| CN(C)C(=O)SCCOC(=O)C1C=CC(NC(=O)C2(C)CC(c3cc(F)cc(F)c3)=NO2)C1 (centres unmarked) [Example 1.29] |  |  |  |  |  |  | 50% | 30 |  |  |  | 30% |  |  | 60% |  |  |  |  |  |
| C=CC1(C(=O)NC2C=C(C(=O)OC)OC2)CC(c2cc(C)cc(C)c2)=NO1 (centres unmarked) [Example 1.90] |  |  |  |  |  |  | 80% | 20 | 100% | 30 |  | 5% | 0% |  | 25% | 30% |  |  |  |  |
| C=CC1(C(=O)NC2COC(C(=O)OC)C2)CC(c2cc(F)cc(F)c2)=NO1 (centres unmarked) [Example 1.69] |  |  |  |  |  |  |  |  |  |  |  |  |  |  |  |  | 37% | 35 | 60% | 95% |
| COC(=O)[C@H]1OCC[C@@H]1NC(=O)[C@@]1(C)CC(c2cc(F)cc(F)c2)=NO1 [Example 1.92] |  |  |  |  | 86% | 60 |  |  |  |  | 10% |  |  | 70% |  |  | 100% | 75 | 0% | 75% |
| CSCCOC(=O)C1C=CC(NC(=O)C2(C(F)(F)F)CC(c3cc(F)cc(F)c3)=NO2)C1 (centres unmarked) [Example 1.7] |  |  |  |  |  |  |  |  |  |  |  |  |  |  |  |  | 34% | 28 | 55% | 83% |
| C=CC1(C(=O)NC2COC(C(=O)OC)C2)CC(c2cc(F)cc(F)c2)=NO1 (mixture of isomers) [Example 1.68] |  |  |  |  | 79% | 75 | 38% | 37 | 40% | 40 | 20% | 60% | 60% | 95% | 97% | 100% | 73% | 68 | 25% | 93% |
| COC(=O)C1=C[C@@H](NC(=O)[C@@]2(C)CC(c3cc(F)cc(F)c3)=NO2)CC1 [Example 1.63] |  |  |  |  | 100% | 25 |  |  |  |  | 0% |  |  | 25% |  |  | 50% | 30 | 30% | 60% |
| COCCOC(=O)C1C=CC(NC(=O)C2(C(F)(F)F)CC(c3cc(F)cc(C#N)c3)=NO2)C1 (centres unmarked) [Example 1.2] |  |  |  |  |  |  | 100% | 45 |  |  |  | 0% |  |  | 45% |  | 63% | 25 | 15% | 40% |
| COCCOC(=O)C1C=CC(NC(=O)C2(C)CC(c3cc(Cl)cc(C#N)c3)=NO2)C1 (centres unmarked) [Example 1.5] |  |  |  |  |  |  | 33% | 20 | 67% | 30 |  | 40% | 15% |  | 60% | 45% |  |  |  |  |
| CC1(C(=O)NC2C=CC(C(=O)O)C2)CC(c2cc(F)cc(F)c2)=NO1 (centres unmarked) [Example 1.36] |  |  |  |  |  |  | 40% | 33 |  |  |  | 50% |  |  | 83% |  |  |  |  |  |
| C=CC1(C(=O)NC2COC(C(=O)OC)C2)CC(c2cc(F)cc(F)c2)=NO1 (centres unmarked) [Example 1.70] |  |  |  |  | 24% | 20 | 58% | 55 | 63% | 60 | 65% | 40% | 35% | 85% | 95% | 95% | 44% | 35 | 45% | 80% |
